Test systems include BT-549 breast; HCC-2998 colon; KM12 colon; CAKI-1 renal; U251 CNS; COLO 205 colon; TK-10 renal; CCRF-CEM leukemia; MCF7 breast; HS 578T breast.
What all share (test): DTP human tumour cell line panel, 48 h

Several values for one entry are separate records, joined by “and”; a condition that tells them apart may be missing. Identical values can stand only once.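 96-well plates; 48 h exposure; 5 concentrations. Endpoints by linear interpolation between flanking doses. Not reached: highest tested concentration assigned. GI50 marks 50% less growth. TGI denotes the concentration required for complete inhibition of growth.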 A value given as a limit tells only on which side of the number the result lay.

Regarding `C=CC(=O)NCc1cccc(Nc2ncc(Br)c(NCCCNC(=O)C3CCC3)n2)c1`, the GI50 in the assay on BT-549 breast was 698 nM and 515 nM; with HCC-2998 colon it was 1830 nM and 3030 nM; in the assay on KM12 colon, 806 nM and 861 nM; in the assay on CAKI-1 renal, 279 nM and 262 nM; in the assay on U251 CNS it was 665 nM and 591 nM; in the assay with COLO 205 colon, 403 nM. In addition, the GI50 with TK-10 renal is 410 nM and 1860 nM; in the assay on CCRF-CEM leukemia, 707 nM and 454 nM; in the assay on MCF7 breast, 1880 nM and 537 nM; with HS 578T breast it was 295 nM and 539 nM. In addition, the TGI was 2550 nM and 2420 nM in the assay with BT-549 breast; 5270 nM and 10100 nM in the assay with HCC-2998 colon; 12500 nM and > 25000 nM in the assay with KM12 colon; 1450 nM and 1480 nM in the assay with CAKI-1 renal; 12500 nM and 5940 nM with U251 CNS; 2010 nM in the assay on COLO 205 colon. Also, the TGI in the assay with TK-10 renal was 4210 nM and 11600 nM; in the assay on CCRF-CEM leukemia it was 12500 nM and > 25000 nM; in the assay on MCF7 breast, 12500 nM and 4770 nM; with HS 578T breast it was 1530 nM and 1860 nM.

In the case of `COc1ccc2c(CN3CCC(C(=O)O)CC3)cc3cc4c(cc3c2c1)OCO4`, the GI50 with BT-549 breast was 4030 nM; in the assay on HCC-2998 colon, 2720 nM; in the assay on KM12 colon, 2520 nM; with CAKI-1 renal, 2440 nM; in the assay with U251 CNS it was 2740 nM; in the assay with COLO 205 colon, 1550 nM. Also, the GI50 in the assay with TK-10 renal was 3230 nM; in the assay with CCRF-CEM leukemia, 1000 nM; with MCF7 breast, 3100 nM; with HS 578T breast, 3970 nM. The concentration for total growth inhibition (TGI) was 17600 nM in the assay on BT-549 breast; 11000 nM with HCC-2998 colon; 10400 nM with KM12 colon; 7800 nM in the assay on CAKI-1 renal; over 100000 nM with U251 CNS; 4330 nM in the assay on COLO 205 colon. Also, the TGI was 25000 nM in the assay with TK-10 renal, 6500 nM in the assay with CCRF-CEM leukemia, 18300 nM with MCF7 breast and 25800 nM in the assay on HS 578T breast.

On to `Clc1cccc(Cl)c1C1CSc2ccccc2N=C1c1ccccc1` (stereo not drawn), for which the GI50 with BT-549 breast was 5190 nM; in the assay with HCC-2998 colon it was 4740 nM; in the assay with KM12 colon, 2150 nM; in the assay on CAKI-1 renal, 10600 nM; in the assay with U251 CNS, 2110 nM; with COLO 205 colon it was 12300 nM. The GI50 in the assay on TK-10 renal was 3690 nM; in the assay with CCRF-CEM leukemia, 3440 nM; in the assay on MCF7 breast it was 595 nM; in the assay with HS 578T breast, 6260 nM. Further, the TGI with BT-549 breast was 17100 nM; in the assay on HCC-2998 colon, 15500 nM; in the assay on KM12 colon it was 4690 nM; in the assay on CAKI-1 renal it was 29800 nM; with U251 CNS, 4540 nM; in the assay on COLO 205 colon, 33500 nM. Besides, the TGI came to 9270 nM in the assay with TK-10 renal, 34800 nM with CCRF-CEM leukemia, 11600 nM with MCF7 breast and 57600 nM in the assay on HS 578T breast.

On to `O=C1Nc2c(C(F)(F)F)cccc2[C@@]1(c1ccc(O)cc1)c1ccc(OC(F)(F)F)cc1`, for which the GI50 in the assay with BT-549 breast is under 10 nM; with HCC-2998 colon, under 10 nM; in the assay with KM12 colon, under 14.3 nM; in the assay with CAKI-1 renal, 36.4 nM; in the assay on U251 CNS, 319 nM; with COLO 205 colon, under 10 nM. In addition, the GI50 in the assay on TK-10 renal is under 10 nM; in the assay on CCRF-CEM leukemia, 14500 nM; in the assay with MCF7 breast it was under 10 nM; in the assay with HS 578T breast it was under 10 nM. Moreover, the TGI with BT-549 breast is under 13.2 nM; in the assay with HCC-2998 colon, 13.1 nM; in the assay with KM12 colon, 3280 nM; in the assay with CAKI-1 renal, 971 nM; in the assay on U251 CNS, 20100 nM; in the assay with COLO 205 colon it was under 10 nM. Moreover, the TGI with TK-10 renal is under 10 nM; in the assay with CCRF-CEM leukemia, 45900 nM; with MCF7 breast, 26.9 nM; in the assay on HS 578T breast, under 10 nM.

With `NC1CCC(Nc2nc(NCc3ccc(-c4cccs4)nc3)c3ncn(C4CCCC4)c3n2)CC1` (stereo not drawn), the GI50 is 131 nM in the assay on BT-549 breast; 30.7 nM in the assay with HCC-2998 colon; 28.5 nM in the assay with KM12 colon; 1620 nM with CAKI-1 renal; 32.7 nM in the assay on U251 CNS; 16.9 nM in the assay with COLO 205 colon. Also, the GI50 with TK-10 renal is 166 nM; with CCRF-CEM leukemia, 32.9 nM; in the assay on MCF7 breast, 30.1 nM; in the assay with HS 578T breast, 26.9 nM. The TGI in the assay with BT-549 breast is 626 nM; with HCC-2998 colon, 490 nM; with KM12 colon, 743 nM; with CAKI-1 renal it was 9920 nM; with U251 CNS, 434 nM; with COLO 205 colon, 35 nM. Moreover, the total growth inhibition concentration (TGI) is 2690 nM in the assay with TK-10 renal, 554 nM in the assay on CCRF-CEM leukemia, 1140 nM with MCF7 breast and 2280 nM in the assay on HS 578T breast.

For `C=C(C)[C@@H]1CC[C@]2(C(=O)O)CC[C@]3(C)[C@H](CC[C@@H]4[C@@]5(C)C[C@@H](CC#Cc6ccc(C(F)(F)F)cc6)[C@H](O)C(C)(C)[C@@H]5CC[C@]43C)[C@@H]12`, the GI50 in the assay on BT-549 breast was 10900 nM; with HCC-2998 colon, 8480 nM; with KM12 colon, 2780 nM; with CAKI-1 renal, 2630 nM; with U251 CNS it was 1980 nM; with COLO 205 colon it was 3720 nM. The GI50 in the assay on TK-10 renal was 6110 nM; in the assay on CCRF-CEM leukemia, 2980 nM; in the assay on MCF7 breast it was 2890 nM; with HS 578T breast, 3880 nM. Moreover, the TGI with BT-549 breast is over 100000 nM; in the assay on HCC-2998 colon it was over 100000 nM; in the assay on KM12 colon, over 100000 nM; in the assay with CAKI-1 renal it was over 100000 nM; in the assay with U251 CNS it was 4750 nM; in the assay on COLO 205 colon, over 100000 nM. The TGI in the assay on TK-10 renal, in the assay with CCRF-CEM leukemia, with MCF7 breast and with HS 578T breast was over 100000 nM each time.

As to `CC1=CC(=C(c2ccc(N)cc2)c2ccc(N)cc2)C=CC1=N`, the GI50 was 679 nM and 1630 nM with BT-549 breast; 557 nM and 2720 nM with KM12 colon; 3350 nM and 8970 nM with CAKI-1 renal; 316 nM and 455 nM and 538 nM in the assay on U251 CNS; 373 nM and 1770 nM with COLO 205 colon; 2990 nM and 4980 nM with TK-10 renal. Also, the GI50 with CCRF-CEM leukemia was 626 nM; in the assay with MCF7 breast, 803 nM and 2320 nM; in the assay with HS 578T breast it was 209 nM and 841 nM. The TGI in the assay on BT-549 breast was 5470 nM and 7090 nM and 9140 nM; with HCC-2998 colon, 2210 nM and 16000 nM and 18900 nM; with KM12 colon it was 6540 nM and 7110 nM and 10100 nM; in the assay with CAKI-1 renal, 13900 nM and 51700 nM and 35600 nM; with U251 CNS, 5380 nM and > 36000 nM and 13000 nM; with COLO 205 colon, 1600 nM and 4860 nM and 3380 nM. Besides, the TGI was 15600 nM and 50200 nM and 19500 nM in the assay with TK-10 renal; 8160 nM and 31300 nM in the assay on CCRF-CEM leukemia; 11400 nM and > 66800 nM and 21100 nM with MCF7 breast.

As usually defined, the GI50 is the concentration that inhibits growth by half. Usually TGI stands for the concentration at which net growth stops.

(Values after PubChem BioAssay (NCI).)
